The supplement of paper PMC8617591

What was measured:
[1] = system: Mycobacterium tuberculosis Erdman (autoluminescent); assay: AUC25, normalised area under dose response up to IC25 (fraction (0-1)); higher = more potent at low dose
Protocol: (§1)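 DiaMOND equipotent two-drug combination dose responses against autoluminescent M. tuberculosis Erdman in 8 in vitro models. Read-out is OD600, or luminescence for the intracellular and dormancy models, normalised to untreated wells. Hill-fit Einf, AUC25 and GRinf are potency metrics; FIC50 and FIC90 are Loewe-additivity fractional inhibitory concentrations, given as log2 (negative = synergy). Replicates are averaged.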

[2] = system: Mycobacterium tuberculosis Erdman (autoluminescent); assay: Einf, fitted maximum growth inhibition of combination (fraction); higher = stronger maximal inhibition
Protocol: as §1

[3] = system: Mycobacterium tuberculosis Erdman (autoluminescent); assay: FIC90 (Loewe) at 90% inhibition (log2); higher = more antagonistic
Protocol: as §1

[4] = system: Mycobacterium tuberculosis Erdman (autoluminescent); assay: GRinf, maximum normalised growth rate inhibition (unitless (-1 to 1)); higher = less effect (negative = killing)
Protocol: as §1

[5] = system: Mycobacterium tuberculosis Erdman (autoluminescent); assay: FIC50 (Loewe) at 50% inhibition (log2); higher = more antagonistic
Protocol: as §1

CC(=O)NC[C@H]1CN(c2ccc(N3CCOCC3)c(F)c2)C(=O)O1 [linezolid] + NC(=O)c1cnccn1 [pyrazinamide]
Conditions | AUC25, [1] | Einf, [2] | FIC50, [5] | FIC90, [3] | GRinf, [4]
in vitro model: acidic pH 5.7, time point: constant (~7 days, model-specific) | 0.0815 | 0.856 | 0.463 | – | -0.176
in vitro model: acidic pH 5.7, time point: terminal (~4-5 doublings, model-specific) | 0.0982 | 0.985 | 0.393 | -1.67 | -0.358
in vitro model: intracellular J774, time point: constant = terminal | – | 0.948 | – | 0.0529 | -0.235

Conditions | AUC25, [1] | Einf, [2] | FIC50, [5] | FIC90, [3] | GRinf, [4]
in vitro model: butyrate, time point: constant (~7 days, model-specific) | 0.119 | 0.897 | -0.211 | 1.73 | 0.0498
in vitro model: butyrate, time point: terminal (~4-5 doublings, model-specific) | 0.0989 | 0.95 | -0.152 | 0.565 | 0.0146
in vitro model: cholesterol 0.05 mM, time point: constant (~7 days, model-specific) | 0.142 | 0.724 | – | – | -0.126
in vitro model: cholesterol 0.05 mM, time point: terminal (~4-5 doublings, model-specific) | 0.141 | 0.95 | 0.09 | – | -0.256
in vitro model: cholesterol-high 0.2 mM, time point: constant (~7 days, model-specific) | 0.114 | 0.957 | 0.0387 | – | -0.407
in vitro model: cholesterol-high 0.2 mM, time point: terminal (~4-5 doublings, model-specific) | 0.115 | 0.999 | 0.0483 | 0.383 | -0.83
in vitro model: dormancy (butyrate + nitrate, low O2), time point: constant (~7 days, model-specific) | 0.0601 | 0.878 | 0.507 | 0.733 | 0.236
in vitro model: dormancy (butyrate + nitrate, low O2), time point: terminal (~4-5 doublings, model-specific) | 0.0422 | 0.823 | 0.0853 | 1.09 | 0.182
in vitro model: standard 7H9 glycerol, time point: constant = terminal | 0.0807 | 0.939 | 0.336 | – | -0.0617
in vitro model: valerate, time point: constant (~7 days, model-specific) | 0.0877 | 0.798 | -0.432 | – | 0.131
in vitro model: valerate, time point: terminal (~4-5 doublings, model-specific) | 0.0556 | 0.892 | -0.271 | 1.25 | 0.137

CC(C)/N=c1\cc2n(-c3ccc(Cl)cc3)c3ccccc3nc-2cc1Nc1ccc(Cl)cc1 [clofazimine] + CO[C@H]1/C=C/O[C@@]2(C)Oc3c(C)c(O)c4c(O)c(c(/C=N/N5CCN(C6CCCC6)CC5)c(O)c4c3C2=O)NC(=O)/C(C)=C\C=C\[C@H](C)[C@H](O)[C@@H](C)[C@@H](O)[C@@H](C)[C@H](OC(C)=O)[C@@H]1C [rifapentine]
Conditions | AUC25, [1] | Einf, [2] | FIC50, [5] | FIC90, [3] | GRinf, [4]
in vitro model: acidic pH 5.7, time point: constant (~7 days, model-specific) | 0.0913 | 0.879 | 0.0615 | 0.794 | -0.198
in vitro model: acidic pH 5.7, time point: terminal (~4-5 doublings, model-specific) | 0.0911 | 0.986 | -0.0081 | 0.123 | -0.304
in vitro model: intracellular J774, time point: constant = terminal | – | 0.988 | – | 0.278 | -0.308

Conditions | AUC25, [1] | Einf, [2] | FIC50, [5] | FIC90, [3] | GRinf, [4]
in vitro model: butyrate, time point: constant (~7 days, model-specific) | 0.112 | 0.95 | 0.36 | 0.54 | -0.0864
in vitro model: butyrate, time point: terminal (~4-5 doublings, model-specific) | 0.0945 | 0.986 | 0.279 | 0.504 | -0.0855
in vitro model: cholesterol 0.05 mM, time point: constant (~7 days, model-specific) | 0.137 | 0.651 | 1.24 | – | -0.17
in vitro model: cholesterol 0.05 mM, time point: terminal (~4-5 doublings, model-specific) | 0.111 | 0.887 | 1.3 | 1.44 | -0.127
in vitro model: cholesterol-high 0.2 mM, time point: constant (~7 days, model-specific) | 0.102 | 0.924 | 0.657 | 1.06 | -0.717
in vitro model: cholesterol-high 0.2 mM, time point: terminal (~4-5 doublings, model-specific) | 0.0885 | 0.996 | 0.714 | 0.543 | -0.813
in vitro model: dormancy (butyrate + nitrate, low O2), time point: constant (~7 days, model-specific) | 0.0864 | 0.932 | 0.121 | 0.16 | 0.0493
in vitro model: dormancy (butyrate + nitrate, low O2), time point: terminal (~4-5 doublings, model-specific) | 0.057 | 0.984 | 0.512 | 0.536 | -0.373
in vitro model: standard 7H9 glycerol, time point: constant = terminal | 0.1 | 0.967 | 0.18 | 0.35 | -0.11
in vitro model: valerate, time point: constant (~7 days, model-specific) | 0.136 | 0.885 | 0.297 | – | -0.112
in vitro model: valerate, time point: terminal (~4-5 doublings, model-specific) | 0.0746 | 0.918 | 0.0341 | 0.667 | 0.116

CC[C@@H](CO)NCCN[C@@H](CC)CO [ethambutol] + NC(=O)c1cnccn1 [pyrazinamide]
Conditions | AUC25, [1] | Einf, [2] | FIC50, [5] | FIC90, [3] | GRinf, [4]
in vitro model: acidic pH 5.7, time point: constant (~7 days, model-specific) | 0.0998 | 0.866 | -0.632 | – | -0.453
in vitro model: acidic pH 5.7, time point: terminal (~4-5 doublings, model-specific) | 0.0625 | 0.968 | 0.212 | -0.791 | -0.281
in vitro model: intracellular J774, time point: constant = terminal | – | 0.994 | – | -0.166 | -0.569

Conditions | AUC25, [1] | Einf, [2] | FIC50, [5] | FIC90, [3] | GRinf, [4]
in vitro model: butyrate, time point: constant (~7 days, model-specific) | 0.0986 | 0.866 | 0.466 | – | 0.133
in vitro model: butyrate, time point: terminal (~4-5 doublings, model-specific) | 0.0883 | 0.817 | 0.636 | – | -0.101
in vitro model: cholesterol 0.05 mM, time point: constant (~7 days, model-specific) | 0.129 | 0.722 | – | – | -0.326
in vitro model: cholesterol 0.05 mM, time point: terminal (~4-5 doublings, model-specific) | 0.14 | 0.901 | -0.0968 | – | -0.224
in vitro model: cholesterol-high 0.2 mM, time point: constant (~7 days, model-specific) | 0.0356 | 0.843 | 0.961 | – | -0.204
in vitro model: cholesterol-high 0.2 mM, time point: terminal (~4-5 doublings, model-specific) | 0.0539 | 0.999 | 0.865 | 0.821 | -0.777
in vitro model: dormancy (butyrate + nitrate, low O2), time point: constant (~7 days, model-specific) | 0.0925 | 0.813 | -0.134 | – | 0.463
in vitro model: dormancy (butyrate + nitrate, low O2), time point: terminal (~4-5 doublings, model-specific) | 0.085 | 0.945 | 0.32 | -0.408 | 0.154
in vitro model: standard 7H9 glycerol, time point: constant = terminal | 0.0625 | 0.873 | 0.18 | – | 0.0807
in vitro model: valerate, time point: constant (~7 days, model-specific) | 0.0825 | 0.705 | -0.152 | – | 0.281
in vitro model: valerate, time point: terminal (~4-5 doublings, model-specific) | 0.0643 | 0.862 | 0.447 | – | 0.248

NC(=O)c1cnccn1 [pyrazinamide] + CO[C@H]1/C=C/O[C@@]2(C)Oc3c(C)c(O)c4c(O)c(c(/C=N/N5CCN(C6CCCC6)CC5)c(O)c4c3C2=O)NC(=O)/C(C)=C\C=C\[C@H](C)[C@H](O)[C@@H](C)[C@@H](O)[C@@H](C)[C@H](OC(C)=O)[C@@H]1C [rifapentine]
Conditions | AUC25, [1] | Einf, [2] | FIC50, [5] | FIC90, [3] | GRinf, [4]
in vitro model: acidic pH 5.7, time point: constant (~7 days, model-specific) | 0.0839 | 0.93 | -0.598 | – | -0.369
in vitro model: acidic pH 5.7, time point: terminal (~4-5 doublings, model-specific) | 0.0754 | 0.997 | -0.129 | -1.04 | -0.31
in vitro model: intracellular J774, time point: constant = terminal | – | 0.964 | – | -0.235 | -0.243

Conditions | AUC25, [1] | Einf, [2] | FIC50, [5] | FIC90, [3] | GRinf, [4]
in vitro model: butyrate, time point: constant (~7 days, model-specific) | 0.109 | 0.875 | 0.371 | 1.25 | 0.119
in vitro model: butyrate, time point: terminal (~4-5 doublings, model-specific) | 0.0943 | 0.941 | 0.431 | 1 | 0.108
in vitro model: cholesterol 0.05 mM, time point: constant (~7 days, model-specific) | 0.127 | 0.63 | – | – | 0.0214
in vitro model: cholesterol 0.05 mM, time point: terminal (~4-5 doublings, model-specific) | 0.105 | 0.896 | 0.52 | – | -0.284
in vitro model: cholesterol-high 0.2 mM, time point: constant (~7 days, model-specific) | 0.0949 | 0.922 | 0.664 | – | -0.246
in vitro model: cholesterol-high 0.2 mM, time point: terminal (~4-5 doublings, model-specific) | 0.0793 | 1 | 1.19 | 0.905 | -0.711
in vitro model: dormancy (butyrate + nitrate, low O2), time point: constant (~7 days, model-specific) | 0.0917 | 0.902 | -0.609 | 1.09 | 0.258
in vitro model: dormancy (butyrate + nitrate, low O2), time point: terminal (~4-5 doublings, model-specific) | 0.0455 | 0.982 | -0.14 | -0.0574 | -0.142
in vitro model: standard 7H9 glycerol, time point: constant = terminal | 0.0487 | 0.866 | -0.0174 | – | 0.219
in vitro model: valerate, time point: constant (~7 days, model-specific) | 0.0445 | 0.684 | 0.675 | – | 0.299
in vitro model: valerate, time point: terminal (~4-5 doublings, model-specific) | 0.0349 | 0.892 | 0.752 | 0.534 | 0.155
